A short description of experiment [1]: Inhibition of Drosophila melanogaster GABA receptor.
Experiment [2] is described as follows: Inhibition of Gamma secretase (unknown origin). The arrangement: species or system Homo sapiens.

Drawing on ChEMBL document CHEMBL5523678, “Synthesis and clinical application of new drugs approved by FDA in 2023” (Eur J Med Chem, 2024), this text covers IC50 for two molecules.

Structures are written as SMILES.

Broadly, the IC50 is the midpoint of a concentration-inhibition curve. Low readings indicate greater potency in that assay, high ones weaker potency in that assay. Regarding `Cc1cc(C2=NO[C@@](c3cc(Cl)c(Cl)c(Cl)c3)(C(F)(F)F)C2)sc1C(=O)NCC(=O)NCC(F)(F)F` [LOTILANER], in experiment [1], 23.8 nM corresponded to half-maximal inhibition (IC50).

The molecule `CCC[C@H](N[C@H]1CCc2cc(F)cc(F)c2C1)C(=O)Nc1cn(C(C)(C)CNCC(C)(C)C)cn1` [NIROGACESTAT] had an IC50 in experiment [2] of 6.2 nM.
